Measurements from paper PMC12257394, “Design, Synthesis, and Biological Evaluation of Ferrocenyl–Cyclo-(Gly‑L‑Pro) Hybrids Sensitizing Multidrug-Resistant Cancer Cells to Anticancer Agents” (ACS Medicinal Chemistry Letters, 2025).

What was measured:
[1] = Neutral red uptake viability assay, SW620E; type: cell-based, human; details: human, SW620E cells (etoposide-resistant), 72 h, n = 3, read-out: Cytotoxic activity IC50 (95% CI)
Procedure: To evaluate this aspect, we investigated the viability of SW620 colon cancer cells and their multidrug-resistant variants (overexpressing ABCB1, ABCC1, and ABCG2) exposed to 1 and 10 μM 4a–e using a neutral red uptake assay (Table ). In general, compounds 4a–e exerted little or no cytotoxic effect on either SW620 or multidrug-resistant sublines even at 10 μM, with the remarkable exception of SW620C (cisplatin-selected variant of SW620) cells, which turned out to be relatively susceptible toward ferrocenyl 4a–c. […] This trend may reflect steric or electronic contributions to cellular uptake or interaction with intracellular targets. […] However, since E/Z isomeric data are currently available only for compound 4c, this hypothesis requires validation. To quantify this effect, IC50 values were determined (Table ). […]
The normal lung fibroblast MRC-5 and colorectal adenocarcinoma SW620 cell lines used in this experiment were purchased from American Type Culture Collection (USA) via LGC […]
Standards. Multidrug-resistant variants of SW620 cells were developed in our laboratory as described previously.10, 11 All cells were cultured under standard conditions (37°C, 5% CO2, 100% humidity) in high-glucose DMEM supplemented with GlutaMaxTM, HEPES (ThermoFisher Scientific, USA), and 10% fetal bovine serum (EURx, Poland). Cells were routinely tested for potential Mycoplasma contamination using the MycoProbe Mycoplasma Detection kit (R&D System, USA).
In total, 104 cells in 100 µL of complete medium were plated per well of a 96-well plate and left overnight to allow cells to adhere to the surface. Then, the cells were exposed to a desired concentration of tested compound(s). Stock solutions were prepared in DMSO and used immediately. The final DMSO concentration was constant and nontoxic (0.1% v/v). After 70-h incubation, neutral red was added to the final concentration of 1 mM. After another 2 h, the medium was aspirated, and cells were washed twice with PBS. Dye was released using 100 µL of a solubilizer (1% acetic acid in 50% ethanol) on an orbital shaker (10 min). Absorbance was read at 540 nm using EnVision Multilabel Plate Reader (Perkin Elmer, USA). Results were expressed as % of control. The IC50 parameters were calculated using GraphPad Prism version 10 (GraphPad Software, Boston, Massachusetts USA). […]
All experiments were performed in triplicate (n = 3).

ABCG2 = target: T1, ABCG2 (Homo sapiens, UniProt Q9UNQ0); experiment: Pheophorbide A accumulation transport assay in SW620Mito cells; type: cell-based; details: 10 µM compound
T1 construct: ABCG2-overexpressing SW620C and SW620Mito; endogenous in cells; host or cells: SW620Mito (mitoxantrone-resistant variant of SW620, developed in the authors' laboratory by drug selection)
T1 sequence (Q9UNQ0 1-655): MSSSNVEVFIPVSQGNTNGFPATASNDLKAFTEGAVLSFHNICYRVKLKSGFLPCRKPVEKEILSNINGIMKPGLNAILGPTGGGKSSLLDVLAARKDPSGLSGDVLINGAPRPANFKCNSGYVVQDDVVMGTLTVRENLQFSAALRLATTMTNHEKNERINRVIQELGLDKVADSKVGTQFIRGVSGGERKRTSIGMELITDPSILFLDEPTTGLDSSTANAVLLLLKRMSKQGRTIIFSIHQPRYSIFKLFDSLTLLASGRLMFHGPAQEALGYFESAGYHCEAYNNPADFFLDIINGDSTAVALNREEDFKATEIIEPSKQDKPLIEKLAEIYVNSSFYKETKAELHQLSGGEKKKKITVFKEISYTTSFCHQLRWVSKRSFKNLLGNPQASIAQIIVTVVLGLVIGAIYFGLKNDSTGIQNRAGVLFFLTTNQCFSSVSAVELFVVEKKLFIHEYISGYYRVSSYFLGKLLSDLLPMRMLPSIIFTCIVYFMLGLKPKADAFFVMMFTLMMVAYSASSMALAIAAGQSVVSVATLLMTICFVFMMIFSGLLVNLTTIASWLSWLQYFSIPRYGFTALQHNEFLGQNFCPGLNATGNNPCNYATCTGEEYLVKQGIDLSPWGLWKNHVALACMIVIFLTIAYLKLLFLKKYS
Text: To confirm the hypothesis of direct interaction between putative ABC protein inhibitors and transporter molecules, we conducted a series of experiments based on fluorescent probe transport as described previously. None of the compounds affected 2′,7′-bis(2-carboxyethyl)-5-(and-6)-carboxyfluorescein (BCECF) efflux out of SW620M cells, indicating the lack of interaction between the putative inhibitors and ABCC1 (Figure A). […] As anticipated, none of the newly synthesized compounds affected dye accumulation in drug-sensitive SW620 cells (data not shown). […]
Respective samples were supplemented with a specific fluorescent marker (100 nM calcein AM for ABCB1, 100 nM BCECF AM for ABCC1, and 1 µM pheophorbide A for A BCG2). […] For ABCB1 and ABCG2 assays (dye accumulation assays), intracellular fluorescence was measured by flow cytometry (FACSymphony A1, Becton, Dickinson and Company, New Jersey, USA) immediately after dye addition (time 0) and every 3–5 min up to approximately 30 min using a flow cytometer set at 488 nm excitation and 530/30 nm emission for the calcein/ABCB1 assay and 400 nm excitation and 655/8 nm emission for the pheophorbide A/ABCG2 assay. […] The intracellular BCECF concentration was then immediately measured at 488 nm excitation and 530/30 nm emission (time 0). […]

SMILES | IC50 at 72 h [1] | increase of intracellular retention of pheophorbide A (ABCG2)
O=C1N/C(=C/c2ccccc2)C(=O)N2CCC[C@@H]12 [(S,E)-4e] | > 100 µM | –
O=C1N/C(=C\c2ccccc2-[c-]2cccc2)C(=O)N2CCC[C@@H]12.[Fe+2].c1cc[cH-]c1 [(S,Z)-4b] | – | ≤ 2.9 fold
O=C1N/C(=C\c2ccc(-[c-]3cccc3)cc2)C(=O)N2CCC[C@@H]12.[Fe+2].c1cc[cH-]c1 [(S,Z)-4d] | – | ≤ 2.9 fold
O=C1N/C(=C\c2ccccc2)C(=O)N2CCC[C@@H]12 [(S,Z)-4e] | > 100 µM | –
